# Results reported in ChEMBL document CHEMBL1133077, “Pyrrolo[3,2-c]pyridine derivatives as inhibitors of platelet aggregation” (Bioorg Med Chem Lett, 2000).
# Columns and labels:
# [1] = organism: Homo sapiens; experiment: Compound was evaluated for inhibition of ADP-mediated platelet aggregation; format: functional; set-up: concentration or dose not given beside the values
# [2] = 1-Octanol/water distribution coefficient measured at 7.4; format: physicochemical; conditions: pH 7.4
Structure (SMILES),logD [2],Inhibition [1]
c1ccc(CN2CCc3[nH]ccc3C2)cc1,1.59,46.5%
CCN1CCc2[nH]ccc2C1,–,23.7%
CC1CN(C)C(C)c2cc(CO)[nH]c21 (stereo not given),–,3.3%
Clc1ccccc1CN1CCc2sccc2C1 [TICLOPIDINE],–,48.5%
C=Cn1ccc2c1CCN(Cc1ccccc1)C2,–,38.7%
CC1CN(C)C(C)c2cc(/C=N/CCO)[nH]c21 (stereo not given),–,12.2%

# Continued, in another order:
logD [2],Structure (SMILES),Inhibition [1]
-1.08,CC1CNC(C)c2cc[nH]c21 (stereo not given),26%
1.14,CC1CN(C)C(C)c2cc([N+](=O)[O-])[nH]c21 (stereo not given),3.6%
-0.41,CC1CN(C)C(C)c2cc[nH]c21 (stereo not given),28.5%
0.69,CC1CN(C)C(C)c2cc(C=O)[nH]c21 (stereo not given),48%
